The test system of one assay is RDM15. Briefly: Co-immunoprecipitation of H3K4me1 with wild-type RDM15, western blot. Type of assay: binding, Arabidopsis. The following applies: wild-type RDM15 (RDM15-3xFLAG/rdm15-3 plants), anti-FLAG IP. An excerpt:
(§1) H3K4me1 mark. a. Histone peptide array assay showing the binding preference of RDM15 to H3K4me1. Error bar represents s.d. (n=3 independent experiments). Data are presented as mean values +/- SD and the dots are the corresponding data points. b. ITC binding curves between the RDM15 tudor domain and H3K4me1 and H4K20me1 peptides indicate that H3K4me1 is the optimal binding partner for […]
(§2) The RDM15-3xFLAG/rdm15-3 and mutated
(§3) RDM15-3xMYC/rdm15-3 plants were used to perform protein immunoprecipitation with anti-FLAG and anti-MYC antibodies, respectively, and then anti-H3K4me1 antibody was used to detect H3K4me1 . d. Methylation specific PCR results showing the methylation levels at several RDM15 -dependent RdDM loci. McrBC, an enzyme cleaving methylated DNA, was used to digest genomic DNA from different pla nts with two biological replicates. Stronger PCR signal represent s lower methylation level. RDM15-3xFLAG rescued the hypomethylation phenotype in rdm15-3, however, the Mutated RDM15-3xMYC didn’t rescue the methylation phenotype .
We thank the reviewer for their comments. We will response the comments in the following with our response highlighted in red.
The authors have fully addressed my concerns.I think this paper meets the standard of a Nature […]
(§4) Moreover, the H3K4me1 mark has been previously detected by ChIP-seq at whole-genome level in a previous study (Inagaki et al., EMBO J., 2017). […]

For assay [1], the target named is T1, RDM15 Tudor domain (Arabidopsis thaliana, UniProt Q8GUP3).
T1 construct: hexahistidine-yeast Sumo (cleaved yes); made in house; host or cells: E. coli BL21(DE3)
T1 sequence (Q8GUP3 599-663): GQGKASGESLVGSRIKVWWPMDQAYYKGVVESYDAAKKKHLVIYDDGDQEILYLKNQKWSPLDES
Briefly: Isothermal titration calorimetry (ITC), RDM15 Tudor domain (WT). Type of assay: binding. The following applies: compared with H3K4me0, H3K4me2 and H3K4me3. On the technique in general: ITC needs no label: the signal is the heat of the interaction.
Protocol: ITC binding was measured using a Microcal PEAQ-ITC instrument (Malvern). The purified proteins were dialyzed against a buffer containing 100 mM NaCl, 20 mM HEPES, pH 7.0, and 2 mM β-mercaptoethanol and were diluted to a concentration of about 0.8–0.12 mM. The peptide was dissolved in the same buffer with a concentration of about 1.0–1.5 mM. All of the titrations were performed at 20 °C. The data were analyzed using the Origin 7.0 program.

Assay [2] concerns the target T1, RDM15 Tudor domain. Kind of assay: Histone peptide array (MODified Histone Peptide Array), GST-fused RDM15. To be noted: several hundred combinations of histone marks. The class given is binding. On the procedure:
Histone peptide array assay was performed using the MODified Histone Peptide Array kit (Active Motif) according to the manufacturer’s instructions. In brief, the slide was first blocked for 2 h at room temperature. After it was washed three times with TBST buffer [10 mM Tris·HCl (pH 7.5), 30 mM NaCl, and 0.05% Tween-20], the slide was incubated overnight with […] of GST-fused purified RDM15 protein at 4 °C in […] of binding buffer [50 mM Hepes (pH 8.0), 150 mM NaCl, 2 mM DTT, and 0.05% Nonidet P-40]. After it was washed three additional times with TBST buffer, the slide was incubated with anti-GST primary antibody at 1/3000 dilution and secondary antibody at 1/5000 dilution in TBST buffer for 1 h at room temperature, respectively. After the washing, the slide was visualized using Lumi-light ECL substrate (Roche). The intensity of the blotted slide was analyzed according to the instructions of the analysis software of the MODified Histone Peptide Array.

The test system of assay [3] is mutated RDM15 (W616A/Y623A/D643A/D645A). Briefly: Co-immunoprecipitation of H3K4me1 with mutated RDM15, western blot. Type of assay: binding, Arabidopsis. The following applies: mutated RDM15-3xMYC/rdm15-3 plants, anti-MYC IP.
Excerpt: We expressed the mutated RDM15 (W616A/Y623A/D643A/D645A) incapable of binding to H3K4me1 in rdm15-3 mutant plants, generating mutated RDM15-3xMYC/rdm15-3 plants.
as §1, §2, §3
We thank the reviewer for their comments. […]
as §4

Consider `CNCCCC[C@H](NC(=O)[C@@H](NC(=O)[C@H](CCCNC(=N)N)NC(=O)[C@H](C)N)[C@@H](C)O)C(=O)N[C@@H](CCC(N)=O)C(=O)N[C@H](C(=O)N[C@@H](C)C(=O)N[C@@H](CCCNC(=N)N)C(=O)N[C@@H](CCCCN)C(=O)N[C@@H](CO)C(=O)N[C@H](C(=O)NCC(=O)NCC(=O)N[C@@H](CCCCN)C(=O)N[C@@H](C)C(=O)O)[C@@H](C)O)[C@@H](C)O` [H3K4me1], for which the “Co-immunoprecipitation of H3K4me1” value with RDM15 is “co-immunoprecipitated by wild-type RDM15”; in assay [3], “not by mutated RDM15”. At RDM15 Tudor domain [1], the “Binding in words (ITC)” value is “bound much more strongly to the monomethylation state of H3K4”. The “Binding in words (histone peptide array)” value on RDM15 Tudor domain [2] is listed as “significant binding”.

The values above are taken from article PMC8184781, “A histone H3K4me1-specific binding protein is required for siRNA accumulation and DNA methylation at a subset of loci targeted by RNA-directed DNA methylation” (Nature Communications, 2021).
